According to PMC7226483, “Exploring the Synergy between PARP and CHK1 Inhibition in Matched BRCA2 Mutant and Corrected Cells” (Cancers, 2020):

Biological target: T1, CHK1 (Cricetulus griseus, UniProt G3I7I8)
T1 construct: gene Chek1
T1 sequence (G3I7I8 1-476): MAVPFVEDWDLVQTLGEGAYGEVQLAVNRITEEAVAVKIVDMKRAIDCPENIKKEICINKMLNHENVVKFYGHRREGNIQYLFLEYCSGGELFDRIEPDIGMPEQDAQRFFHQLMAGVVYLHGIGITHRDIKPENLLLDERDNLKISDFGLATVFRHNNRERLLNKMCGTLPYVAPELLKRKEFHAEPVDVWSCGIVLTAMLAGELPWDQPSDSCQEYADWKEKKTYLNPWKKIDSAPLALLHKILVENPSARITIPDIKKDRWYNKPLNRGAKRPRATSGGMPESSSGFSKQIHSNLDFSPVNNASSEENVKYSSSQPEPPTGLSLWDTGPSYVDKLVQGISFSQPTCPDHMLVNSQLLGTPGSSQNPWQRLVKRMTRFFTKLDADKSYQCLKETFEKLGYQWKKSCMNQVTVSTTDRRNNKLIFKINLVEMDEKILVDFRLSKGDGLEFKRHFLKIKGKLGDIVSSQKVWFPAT
Test: Western blot of CHK1 S296 autophosphorylation in rucaparib-treated V-C8 and V-C8.B2 cells
Assay type: cell-based
Conditions: read-out: % inhibition at 50 nM

`Cn1cc(-c2[nH]c3cc(NC(=O)[C@H](N)C4CCCCC4)cc4c3c2C=NNC4=O)cn1` [PF-477736] gave an inhibition at 0.05 µM of 91.4%.
